Tests used:
[1] = Distribution of 210Pb between water and chloroform after adding chelator; type: physicochemical
Description: In this example the ability of DMS(C8)2, from Example 17, and C12 DMS Et2, from Example 16 to move ^210 Pb between lipid and aqueous phases of chloroform and water mixture was measured. This would be an indicator of the ability of the chelator and the chelate-metal complex to penetrate lipophilic barriers.
^210 Pb was dissolved in water. C12 DMS Et2 and DMS(C8)2 were added and mixed for 10 minutes with chloroform. The solutions were mixed every several hours. The phases separated and the percentage of ^210 Pb found in the chloroform phase as a function of time was determined.

[2] = known chelators; cited from earlier work
[3] = pH-titration at constant ionic strength; type: physicochemical; conditions: pH-titration in both directions
Description: For each compound, pH-titrations in both directions were carried out at constant ionic strength. All compounds were completely […] between pH 7.2 and 7.8 for the DT-series and 7.7 and 8.0 for the TT-series, pointing to the availability of all potential donor electrons derived from carboxyl oxygens--for complex or chelate formation similar to EDTA (pH 8.8) and DTPA (pH 6.7), the two model compounds known for their ability to chelate actinides and some other metals.

[4] = Elimination of intravenously injected 241Am-complexed chelons by whole body counting and excreta; type: in vivo; conditions: intravenous
Description: In this example, animals were injected intravenously with ^241 Am-complexed C12 TT or K11 TT (K= terminally carboxylated alkyl series) and the rates of elimination from the body were determined. This was determined by whole body counting and counting of the excreta, both urine and feces. FIG. 2 illustrates the fraction of total body retention of the labeled chelating agents as a function of time after exposure. […] This example illustrates that modified polyaminocarboxylic acids have different organ targeting properties and different excretion pathways.

[5] = system: intestinal mucosa (duodenum and proximal jejunum); experiment: Intestinal tied-loop passage of 241Am complexes in situ; type: in vivo, rats; conditions: 241Am complex, 3 hours
Description: (§1) To test the ability of complexed chelons to move across membrane and cellular barriers, an assay has been developed that measures the intestinal passage of the chelons in closed duodenal segments in situ over a 3 hour period. […] Although there were differences in the rate at which some of these compounds moved through this tissue barrier, all were effective in Am removal in vivo as set forth in the following Table 1.
The ability of Am-citrate and ^241 Am-C12 TT to cross the intestinal mucosa in situ was measured using an intestinal tied-loop technique. Rats were anesthetized and a 18-20 cm segment of the duodenum and proximal jejunum was isolated and rinsed with cold saline. The most proximal portion of this segment was 1 cm distal to the pyloric junction. With the stability of the ^241 Am-complex established, known quantities of the corresponding complexes were introduced in vivo directly into the isolated and ligated segment. The animals remained anesthetized to allow for passage of the lipophilic compounds through the intestinal barrier into the body. After 3 hours, the rats were euthanized, the ligated section of the gut was excised and its lumen flushed with saline. Lumen wash, cleaned gut section, combined viscera, liver and the remaining carcass were counted separately. The 241Am found in the various parts was considered as representative of the distribution of the chelon.

[6] = Reduction of 241Am whole body and organ burden by oral chelon administration (Table 2, Example 12); type: in vivo, Sprague-Dawley rats; conditions: 10 days oral treatment, 50 micro-mole/rat/day, vs controls; for % Reduction of 241Am, both femora / % Reduction of 241Am, carcass / % Reduction of 241Am, liver / % Reduction of 241Am, whole body: p <0.001 (C12TT, C22TT); for % Reduction of 241Am, one kidney: p >0.1 (C12TT, C22TT)
Description: ^a) Reduction = 100 - (% of initial activity in treated rats at
death/% of initial activity in controls at death); 9 Rats/Group; 10 Days
(§2) In vivo studies of the compounds of the present invention were performed. The effect of oral treatment on rats given an injection of 241Am was studied by a) comparing the reduction of an internal burden of 241Am from rats fed C12 TT or C22 TT with the natural biological retention of ^241 Am under condition of no chelation treatment; b) examination of histologic sections of tissues obtained from treated rats and c) by comparing the relative weight gain of treated rats and controls during the chelon feeding period. The effect of feeding C12 TT or C22 TT on the retention of ^241 Am was tested in 3 groups of 9 rats each. Sprague-Dawley rats (Simonson Labs., Gilroy, Cailf.), aged 60 days, were used in these studies. The animals were housed in groups of 3 or 4 until treatment was initiated. ^241 Am was given via the jugular vein as a single injection in citrate buffer of pH 3.5. One week later, rats were transferred to individual cages and feeding of the chelator was initiated. This delay allowed the nuclide to be incorporated firmly in the target organs, mostly liver and bone.
(§3) The first group served as untreated controls, the second and third groups received 50 micro-mole of C12 TT or C22 TT/rat or about 200 micro-mole/kg of body weight, respectively, in their daily ration of 25 g of rodent chow. On days 1 and 7 after injection and on days 3, 6 and 10 of chelation treatment, the total body retention of ^241 Am was measured using a whole body counter. The animals were necropsied after 10 days of oral chelation therapy and the femora, liver, 1 kidney, viscera and carcass with integument were counted for ^241 Am content. The other kidney and a sample of the small and large intestine were prepared for histological evaluation. Whole body retentions as a function of time were evaluated. Terminal organ retentions were measured after necropsy only. The reduction in whole body or organ retention due to oral chelation treatment was expressed as: [formula] both taken at the same time after treatment initiation. Results are shown in Table 2 above, which is incorporated into this Example by reference.

[7] = Weight gain and histology of rats during oral chelon feeding; type: in vivo, Sprague-Dawley rats; conditions: 10 days oral feeding; controls 61.1+8.8 g
Description: as §2, with “The animals were housed in groups of 3 or 4 until treatment was initiated. ^241 Am was given via the jugular vein as a single injection in citrate buffer of pH 3.5. One week later, rats were transferred to individual cages and feeding of the chelator was initiated. This delay allowed the nuclide to be incorporated firmly in the target organs, mostly liver and bone.” left out
as §3, with “The other kidney and a sample of the small and large intestine were prepared for histological evaluation.” left out, “The reduction in whole body or organ retention due to oral chelation treatment was expressed as: [formula] both taken at the same time after treatment initiation. Results are shown in Table 2 above, which is incorporated into this Example by reference.” left out

[8] = Effect of 1 week oral feeding of TT-based chelons on total body and liver content of 241Am (Table 1); type: in vivo, rats; set-up: % Reduction in liver 241Am (Compared with controls): concentration or dose not given beside the values; conditions: for % Reduction in liver 241Am (Compared with controls): 1 week oral feeding, determined at necropsy; for % Reduction in total body 241Am (Before vs after chelon feeding): po, 168 h
Description: as §1
Effect of 1 week feeding of TT-based chelons on total
body and liver content of ^241 Am. Am was allowed to
incorporate for 1 week prior to oral chelon feeding.
Total body counts were taken before and after chelon feeding.
Liver values were determined at necropsy.

[9] = system: red cells; experiment: Crenation-hemolysis test in fresh canine blood; type: cell-based; conditions: Ca chelate, 10 and 20 mg, 37° C., 1 hour and 4 hours
Description: Toxicity studies were performed as indicators of early gross toxicity. […] Therefore, the crenation-hemolysis tests were repeated with the highly purified C12 -and C22 -PACAs. Two ml aliquots of fresh canine blood, drawn with a heparinized syringe, were incubated at 37° C. with an equal volume of a 0.1M Tris-buffer containing 10 and 20 mg, respectively, of the Ca chelate of the two compounds whose osmolarity had been adjusted to 270-300 mOsm. After 1 hour and 4 hours of incubation, respectively, blood smears were prepared and examined microscopically and cells were sedimented.

[10] = Reduction of 239Pu organ burden by oral administration of C22 TT (Table 5, Example 14); type: in vivo, Sprague-Dawley rats; conditions: 10 days in diet, starting 14 days after Pu, vs untreated
Description: Twelve young adult male rats (Sprague-Dawley rats from Simonsen Labs, Gilroy, Calif.) were given ^239 Pu by intravenous injection. Fourteen days later 6 of the animals were fed C22 TT in the diet while the other 6 animals were not fed the compound and served as controls. The delay in beginning the chelation treatment allowed the nuclide to be incorporated firmly in the target organs. After 10 days of feeding, the animals were sacrificed and the Pu content in 'select tissues was determined by liquid scintillation counting.
*100 × (1Pu in treated animals/Pu in untreated, control animals)

[11] = Solution behaviour / micelle formation of C22 TT; type: physicochemical
[12] = In vitro Pb binding and lipophilic character of C12 DMSA; type: physicochemical
Text: As with the PACA's, the chain length could be changed and other functional groups could be added.

[13] = system: intestinal tract; conditions: dogs; cited from earlier work

CCCCCCCCOC(=O)C(S)C(S)C(=O)OCCCCCCCC (centres unmarked) [DMS(C8)2, dimercaptosuccinic acid dioctyl ester]
Percentage of aqueous 210Pb found in chloroform phase, 15 min [1]: 32.2%
Percentage of aqueous 210Pb found in chloroform phase, 16 h [1]: 41.9%

O=C(O)CN(CCN(CC(=O)O)CC(=O)O)CC(=O)O [EDTA, ethylenediaminetetraacetic acid]
effectiveness in removing lead [2]: effective in removing lead in the blood, but is not effective in removing lead which has penetrated the cells
pH of complete protonation [3]: 8.8

O=C(O)CN(CCN(CC(=O)O)CC(=O)O)CCN(CC(=O)O)CC(=O)O [DTPA, diethylenetriamine pentaacetic acid]
pH of complete protonation [3]: 6.7

CCCCCCCCCCCCN(CCN(CCN(CCN(CC(=O)O)CC(=O)O)CC(=O)O)CC(=O)O)CC(=O)O [C12 TT, 1-N-Dodecyl-triethylenetetramine pentaacetic acid]
excretion pathway [4]: via the liver, through the bile into the feces
rate of elimination from the body [4]: less rapidly excreted
fraction found in carcass [5]: 20%
fraction found in liver [5]: 3%
fraction found in lumen and gut section [5]: 73%
fraction found in viscera [5]: 4%
% Reduction of 241Am, both femora [6]: 17%
% Reduction of 241Am, carcass [6]: 20%
% Reduction of 241Am, liver [6]: 71%
% Reduction of 241Am, whole body [6]: 29%
% Reduction of 241Am, one kidney [6]: 24%
weight gain [7]: 55.7+11.1 g
% Reduction in liver 241Am (Compared with controls) [8]: -57.1 ± 0.1%
% Reduction in total body 241Am (Before vs after chelon feeding) [8]: -46.5 ± 4.0%
appearance of sera / hemolysis [9]: All sera were slightly pink in appearance
red cell crenation [9]: No red cell crenation was observed

CCCCCCCCCCCCCCCCCCCCCCN(CCN(CCN(CCN(CC(=O)O)CC(=O)O)CC(=O)O)CC(=O)O)CC(=O)O [C22 TT, 1-N-Docosyl-triethylenetetramine pentaacetic acid]
% Reduction of 239Pu, liver ([10]; p <0.005): 71.1%
% Reduction of 239Pu, spleen ([10]; p <0.01): 16.9%
% Reduction of 239Pu, femora ([10]; p <0.375): 3.5%
% Reduction of 239Pu, lumbar vertebral bodies ([10]; p <0.375): 8.4%
% Reduction of 241Am, both femora [6]: 32%
% Reduction of 241Am, carcass [6]: 36%
% Reduction of 241Am, liver [6]: 89%
% Reduction of 241Am, whole body [6]: 44%
% Reduction of 241Am, one kidney [6]: 26%
weight gain [7]: 70.2+11.6 g
% Reduction in liver 241Am (Compared with controls) [8]: -47.9 ± 9.1%
% Reduction in total body 241Am (Before vs after chelon feeding) [8]: -45.7 ± 6.1%
solution clarity / micelle formation [11]: micelle formation
appearance of sera / hemolysis [9]: All sera were slightly pink in appearance
red cell crenation [9]: No red cell crenation was observed

CCCCCCCCN(CCN(CCN(CCN(CC(=O)O)CC(=O)O)CC(=O)O)CC(=O)O)CC(=O)O [C8 TT]
% Reduction in liver 241Am (Compared with controls) [8]: -30.1 ± 10.0%
% Reduction in total body 241Am (Before vs after chelon feeding) [8]: -39.0 ± 6.3%

O=C(O)C(S)C(S)C(=O)O (centres unmarked) [DMSA, 2,3dimercaptosuccinic acid]
effectiveness in removing lead [2]: effective for reducing blood levels of Pb, but has limited effectiveness in removing lead burdens from other organs, such as liver, brain and bone

CCCCCCCCCCCCSC(C(=O)OCC)C(S)C(=O)OCC (centres unmarked) [C12 DMS Et2, S-Dodecyl dimercaptosuccinic acid diethyl ester]
Percentage of aqueous 210Pb found in chloroform phase, 15 min [1]: 36.5%
Percentage of aqueous 210Pb found in chloroform phase, 16 h [1]: 62.2%

CCCCCCCCCCCCSC(C(=O)O)C(S)C(=O)O (centres unmarked) [C12 DMSA, S-Dodecyl dimercaptosuccinic acid]
ability to bind Pb in vitro [12]: ability of this molecule to bind Pb is demonstrated in vitro
partial lipophilic character [12]: partial lipophilic character of this molecule has been established in vitro

O=C([O-])CN(CCN(CC(=O)[O-])CC(=O)[O-])CCN(CC(=O)[O-])CC(=O)[O-].[Ca+2].[Na+].[Na+].[Na+] [Ca DTPA]
toxicity after frequent administration [13]: destruction of the epithelial lining and related structures of the intestinal tract followed by death

From patent US5403862A, “Method for oral decorporation of metals” (priority 1992, dated 1995)
